This note sets out measurements from US9328112B2, “Tetracyclic CDK9 kinase inhibitors” (AbbVie Inc., priority 2014, dated 2016).

In one assay the target is CDK9/Cyclin T1 (Homo sapiens (Human), UniProt P50750). Briefly: CDK9 enzyme assay (LANCE ULight TR-FRET kinase assay). In kind it is biochemical. Conditions: 1000 μM ATP, 100 nM ULight MBP, kinase reaction 1 hour. In outline:
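TR-FRET readout (ex 320 nm; em 615/665 nm) after 1 h detection with 0.5 nM europium anti-phospho-MBP antibody in 20 mM EDTA stop buffer. Preceding 1 h kinase step: CDK9/Cyclin T1, ULight-MBP substrate at 100 nM, ATP at 1000 μM, compound pre-diluted in DMSO then buffer.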
Background: TR-FRET usually uses a lanthanide donor and a delayed reading to cut background.

The next assay relates to H929 cells. Description: Cell viability assay (Cell TiterGlo). In kind it is cell-based. As to conditions: Cell TiterGlo luminescence. The method, then: The cell viability assay was performed using H929 cells. Cells were seeded in 96-well plates at 10,000 cells/well and, after overnight incubation, treated with compounds in a dose response of 3-fold dilutions from 10 μM to 0.005 μM ([…], 0.1% final DMSO concentration). After 24 hours at 37° C., cell viability was measured using Cell TiterGlo reagent (Promega) with a luminescence reader.
Background: ATP-based viability assays read luminescence as a measure of living cells.

Setting [1] is: Homo sapiens, NCI-H929, 24 hours at 37° C.

CDK9/Cyclin T1, sequence (P50750 whole entry): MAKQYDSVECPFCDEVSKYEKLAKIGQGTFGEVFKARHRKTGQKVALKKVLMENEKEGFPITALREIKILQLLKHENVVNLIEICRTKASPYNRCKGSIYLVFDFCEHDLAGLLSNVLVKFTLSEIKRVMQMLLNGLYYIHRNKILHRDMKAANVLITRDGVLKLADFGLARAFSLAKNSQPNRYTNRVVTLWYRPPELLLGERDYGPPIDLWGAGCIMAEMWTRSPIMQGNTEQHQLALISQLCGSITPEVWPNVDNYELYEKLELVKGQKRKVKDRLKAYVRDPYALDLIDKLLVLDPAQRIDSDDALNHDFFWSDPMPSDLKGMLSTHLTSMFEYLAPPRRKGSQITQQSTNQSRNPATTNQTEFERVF
CDK9/Cyclin T1, sequence (O60563 whole entry partner): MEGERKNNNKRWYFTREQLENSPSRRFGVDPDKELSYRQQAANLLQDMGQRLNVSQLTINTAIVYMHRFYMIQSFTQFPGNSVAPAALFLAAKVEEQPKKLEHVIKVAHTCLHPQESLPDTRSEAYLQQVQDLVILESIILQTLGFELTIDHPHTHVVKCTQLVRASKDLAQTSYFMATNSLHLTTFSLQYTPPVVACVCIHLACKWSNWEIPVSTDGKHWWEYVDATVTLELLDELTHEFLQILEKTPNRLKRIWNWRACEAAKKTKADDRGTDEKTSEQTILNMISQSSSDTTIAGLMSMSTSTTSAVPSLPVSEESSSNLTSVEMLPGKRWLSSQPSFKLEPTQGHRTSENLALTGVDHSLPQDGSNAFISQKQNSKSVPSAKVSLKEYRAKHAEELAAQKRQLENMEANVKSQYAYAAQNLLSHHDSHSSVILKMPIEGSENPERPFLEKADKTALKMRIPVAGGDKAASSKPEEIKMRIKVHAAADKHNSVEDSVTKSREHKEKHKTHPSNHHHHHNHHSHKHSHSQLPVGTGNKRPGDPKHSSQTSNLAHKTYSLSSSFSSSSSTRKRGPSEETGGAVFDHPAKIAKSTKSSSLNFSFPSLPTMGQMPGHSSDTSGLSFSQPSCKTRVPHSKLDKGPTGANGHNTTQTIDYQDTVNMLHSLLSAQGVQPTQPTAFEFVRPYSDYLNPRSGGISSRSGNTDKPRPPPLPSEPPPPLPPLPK

As to `CN1CCc2c(C3=CCN([C@H]4C[C@@H](C(=O)O)C4)CC3)[nH]c3nccc(c23)-c2cc(F)ccc21` [Example 188, cis-3-[4-(8-fluoro-5-methyl-1,3,4,5-tetrahydro-1,5,12-triazabenzo[4,5]cycloocta[1,2,3-cd]inden-2-yl)-3,6-dihydropyridin-1(2H)-yl]cyclobutanecarboxylic acid], the results for the IC50 on CDK9/Cyclin T1 and in the assay with H929 cells (24 hours at 37° C.) were 150 nM and 290 nM, respectively.
On to `CC[C@H]1c2c(C3=CCN([C@H]4C[C@H](C(=O)O)C4)CC3)[nH]c3nccc(c23)-c2cc(F)ccc2N1C` [Example 189, trans-3-{4-[(6S)-6-ethyl-10-fluoro-7-methyl-6,7-dihydro-4H-3,4,7-triazadibenzo[cd,f]azulen-5-yl]-3,6-dihydropyridin-1(2H)-yl}cyclobutanecarboxylic acid], for which the figures for the IC50 against CDK9/Cyclin T1 and in the assay on H929 cells (setting [1]) were 110 nM and 6 nM, respectively.
Take `CN1CCc2c(C3=CCN([C@H]4C[C@H](C(=O)O)C4)CC3)[nH]c3nccc(c23)-c2cc(F)ccc21` [Example 190, trans-3-[4-(8-fluoro-5-methyl-1,3,4,5-tetrahydro-1,5,12-triazabenzo[4,5]cycloocta[1,2,3-cd]inden-2-yl)-3,6-dihydropyridin-1(2H)-yl]cyclobutanecarboxylic acid]: the figures for the half-maximal inhibitory concentration (IC50) against CDK9/Cyclin T1 and with H929 cells (24 hours at 37° C.) were 160 nM and 190 nM, respectively.
For `CN1Cc2c(C3=CCN(C4CCC(C(C#N)C(=O)O)CC4)CC3)[nH]c3nccc(c23)-c2cc(F)ccc21` (stereo not drawn) [Example 191, cyano{4-[4-(10-fluoro-7-methyl-6,7-dihydro-4H-3,4,7-triazadibenzo[cd,f]azulen-5-yl)-3,6-dihydropyridin-1(2H)-yl]cyclohexyl}acetic acid], the results for the IC50 on CDK9/Cyclin T1 and with H929 cells (setting [1]) were 88 nM and 440 nM, respectively.
Regarding `CN1Cc2c(C3=CCN(C4CC(CC(=O)O)C4)CC3)[nH]c3ncc(F)c(c23)-c2cc(F)ccc21` (stereo not drawn) [Example 192, {3-[4-(1,10-difluoro-7-methyl-6,7-dihydro-4H-3,4,7-triazadibenzo[cd,f]azulen-5-yl)-3,6-dihydropyridin-1(2H)-yl]cyclobutyl}acetic acid], the concentration for half-maximal inhibition (IC50) (as a rule, the concentration needed to halve the response being measured) amounted to 79 nM on CDK9/Cyclin T1 and 27 nM in the assay with H929 cells (setting [1]).
The matching figures for `CN1Cc2c(C3=CCN(C4CC(C(=O)O)C4)CC3)[nH]c3ncc(F)c(c23)-c2cc(F)ccc21` (stereo not drawn) [Example 193, 3-[4-(1,10-difluoro-7-methyl-6,7-dihydro-4H-3,4,7-triazadibenzo[cd,f]azulen-5-yl)-3,6-dihydropyridin-1(2H)-yl]cyclobutanecarboxylic acid]: 76 nM and 11 nM.
